Converted amounts (≈) assume the structure as drawn.
Columns and labels:
Cytotoxic activity [1] = format: cell-based; settings: human, HCT-116 cells (colon carcinoma)
Cytotoxic activity [2] = format: cell-based; settings: human, KB-3-1 cells (cervix carcinoma)
[3] = test system: pyocyanin produced by Pseudomonas aeruginosa strain PA14; assay: Pyocyanin assay; format: cell-based; settings: administered to Pseudomonas aeruginosa
E. coli TolC mutants = assay: Bacterial cell entry test, LC-MS analysis; format: cell-based, Escherichia coli; settings: concluded from fluorescence microscopy and LC-MS analysis
pancreatic elastase = settings: previously listed in the literature; cited from earlier work
neurotensin = settings: ref [25]; cited from earlier work

Compound	IC50 at 5 days (Cytotoxic activity [1])	IC50 at 5 days (Cytotoxic activity [2])	inhibition of pyocyanin production (in words) [3]	cell entry capabilities for E. coli (authors' conclusion, in words) (E. coli TolC mutants)	inhibition of pancreatic elastase (in words) (pancreatic elastase)	IC50, neurotensin inhibitor (neurotensin)
CC[C@H](C)[C@@H]1NC(=O)[C@@H](N)Cc2ccc(OC)c(c2)-c2cc3cc(c2O)Oc2ccc(cc2)C[C@@H](C(=O)O)NC(=O)[C@H](C3)NC1=O [cittilin A]	110 µg/mL (≈ 175 µM)	74.8 µg/mL (≈ 119 µM)	no inhibition of pyocyanin production	poor cell entry capabilities	moderate inhibitor	
YIYY (bicyclic or more) [cittilin B]						30 µg/mL
